Data set [1] is described as follows: Influence of food intake on absorption of clavulanic acid and amoxicillin (plasma pharmacokinetics after test tablet, Comparative Example A). It is filed as in vivo, human. To be noted: for AUC(0-inf) / Cmax / Tmax: human, plasma, oral, one test tablet. Here is the method:
An exploratory study involving 9 healthy volunteers receive the test product under fasted and fed conditions. The test product is AUGMENTIN™ XR as commercially available by Glaxosmithkline, and is an extended release tablet containing 1000 mg amoxicillin and 62.5 mg clavulanic acid wherein said tablet consists of a fast release layer comprising 562.5 mg as amoxicillin trihydrate and 62.5 mg clavulanic acid as clavulanate potassium salt, and of an extended release layer containing 437.5 mg amoxicillin as amoxicillin sodium salt. The test tablets are magnetically marked as described in Comparative Example B. The volunteers receive one test tablet together with 240 ml of non-carbonated water under the following conditions:
a) under fasting conditions: on one study day after a fasting period of at least 8 hours, b) at the beginning of a meal: on another study day after the first bite of a high […] standardized breakfast A, and c) under fed conditions: on still another study day 30 minutes after a high fat standardized breakfast B.
The standardized breakfast A consists of 2 slices of bread, 40 g cheese, 150 ml orange juice, 150 ml milk, and 20 g of cereals. The standardized breakfast B consists of 2 eggs fried in butter, 2 strips of bacon, 2 slices of toast with butter, 120 ml of hash brown potatoes and 240 ml of whole milk (3.5% fat).
(§1) Blood samples are taken before and 0.5, 1, 1.5, 2, 2.5, 3, 3.5, 4, 4.5, 5, 5.5, 6, 6.5, 7, 7.5, 8, 8.5, 9, 9.5, 10 and 12 hours after ingestion of the test tablet. Blood samples are centrifuged and stored at −80° C. Concentrations of both amoxicillin and clavulanic acid are determined according to known methods using a LC-MS/MS procedure (HPLC coupled Online with MS). Pharmacokinetic parameters are expressed as Cmax (maximal plasma concentration), AUC0→∞ (area under the plasma concentration-time curve extrapolated to infinity) and tmax (time of peak plasma concentration). Cmax and tmax as figuring in Tables 1 and 2 are determined from the 9 single values directly taken from the plasma-concentration-time curve. AUC0→tlast is calculated as follows: AUC0→∞=AUC0→tlast+AUCtlast→∞ wherein AUC0→tlast is the area under the plasma concentration-time curve from time of administration until time of last quantifiable concentration measured, i.e. Ct, and is calculated by using the linear trapezoid rule. AUCtlast→∞ is the extrapolated area to infinity that equals to Ct/Kel wherein Kel is the elimination rate constant. The results are reported using descriptive statistics.
Tables 1 and 2 show the pharmacokinetic parameters of clavulanic acid and amoxicillin, respectively, determined in human plasma from the blood samples taken after administration of one test tablet under fasting or fed conditions or at the beginning of a meal (values are mean values of 9 volunteers).

Data set [2] can be described thus: Crossover bioavailability study of tablet B before and tablet A after food intake vs both after food intake (Example 3). Format: in vivo, human. To be noted: data not shown. Here is the method: In this study 20 subjects are randomized in balanced manner into 2 sequences. The subjects in the sequence 1 obtain tablet B under fasting conditions and then tablet A 30 minutes after beginning of food intake whereas the subjects in the second sequence are dosed with both tablets (A and B) 30 minutes after beginning of food intake. The extended release tablet A contains 1125 mg amoxicillin whereas tablet B is an immediate release formulation comprising 875 mg as amoxicillin trihydrate and 125 mg clavulanic acid as clavulanate potassium salt. The volunteers receive […] of non-carbonated water to each tablet administered.
The standardized breakfast (before or between the dosing) consists of 2 eggs fried in butter, 2 strips of bacon, 2 slices of toast with butter, 120 ml of hash brown potatoes and 240 ml of whole milk (3.5% fat).
as §1, with “plasma concentration) and” for “plasma concentration),”, “infinity) which” for “infinity) and tmax (time of peak plasma concentration). Cmax and tmax as figuring in Tables 1 and 2”, “determined analogously as described above in comparative example A. Cmax is” for “determined from the 9 single values”, “curve. AUC0→∞” for “curve. AUC0→tlast”, “constant.” for “constant. The results are reported using descriptive statistics.”

Data set [3] is described as follows: More extensive study involving 70 volunteers with conventional test tablet without magnetic markers. Format: in vivo, human. To be noted: test tablet at the beginning of a meal, data not shown. The protocol:
If a conventional combination of an acid labile active ingredient such as clavulanic acid and of an acid resistant active ingredient such as amoxicillin is administered according to a conventional scheme, namely both active ingredients simultaneously, concomitant food intake seems to strongly influence the plasma concentrations and thus bioavailability of the 2 active ingredients. This has been observed in the herein described exploratory study for a conventional combination in the form of a bilayer tablet comprising clavulanic acid for immediate release and amoxicillin for both immediate and extended release such as the herein described test tablet.

For data set [4] the following is noted: co-administered e.g. with sodium bicarbonate; compared to fasting; cited from earlier work.

Like-named read-outs stand apart in the source and are kept apart here.

In the case of `CC1(C)S[C@@H]2[C@H](NC(=O)[C@H](N)c3ccc(O)cc3)C(=O)N2[C@H]1C(=O)O` [amoxicillin], the AUC of amoxicillin result in data set [1] (at the beginning of a meal compared with fasting and fed state) is “lies in between that observed for the fasting and for the fed state”; in data set [1] (fasting conditions compared with fed conditions), “significantly reduced”. Besides, the “Plasma concentrations of amoxicillin (FIG. 2): absorption” value in data set [1] (fed conditions compared with fasting conditions) is recorded as “delayed absorption”. For the same compound, the tmax of amoxicillin result in data set [1] (fed conditions compared with fasting or beginning of a meal) is “significantly delayed”. In addition, the AUC(0-inf) is 40900 ng·h/mL in data set [1] (amoxicillin in human plasma, at the beginning of a meal, read-out: AUC0→∞, mean value ± s (converted)); 39100 ng·h/mL in data set [1] (amoxicillin in human plasma, at the beginning of a meal, read-out: AUC0→∞, median (converted)); 30900 ng·h/mL in data set [1] (amoxicillin in human plasma, fasting conditions, 9 volunteers, read-out: AUC0→∞, mean value ± s (converted)); 29000 ng·h/mL in data set [1] (amoxicillin in human plasma, fasting conditions, read-out: AUC0→∞, median (converted)); 43400 ng·h/mL in data set [1] (amoxicillin in human plasma, fed conditions (30 minutes after high fat breakfast), read-out: AUC0→∞, mean value ± s (converted)); 42100 ng·h/mL in data set [1] (amoxicillin in human plasma, fed conditions, read-out: AUC0→∞, median (converted)). The peak concentration (Cmax) (usually the maximum level reached in the sampled fluid or tissue) in data set [1] (amoxicillin in human plasma, at the beginning of a meal, read-out: Cmax, mean value ± s) stood at 10400 ± 2000 ng/mL; in data set [1] (amoxicillin in human plasma, at the beginning of a meal, read-out: Cmax, median), 9870 ng/mL; in data set [1] (amoxicillin in human plasma, fasting conditions, read-out: Cmax, mean value ± s) it was 10300 ± 1200 ng/mL; in data set [1] (amoxicillin in human plasma, fasting conditions, read-out: Cmax, median), 10300 ng/mL; in data set [1] (amoxicillin in human plasma, fed conditions, read-out: Cmax, mean value ± s), 9880 ± 2300 ng/mL; in data set [1] (amoxicillin in human plasma, fed conditions, read-out: Cmax, median), 9830 ng/mL. Moreover, the time to peak (Tmax) (commonly the time from dosing to the highest level) in data set [1] (amoxicillin in human plasma, at the beginning of a meal, read-out: tmax, mean value ± s (converted)) was approximately 1.38 h; in data set [1] (amoxicillin in human plasma, at the beginning of a meal, read-out: tmax, median (converted)), 1 h; in data set [1] (amoxicillin in human plasma, fasting conditions, read-out: tmax, mean value ± s (converted)) it was approximately 1.5 h; in data set [1] (amoxicillin in human plasma, fasting conditions, read-out: tmax, median (converted)) it was 1.5 h; in data set [1] (amoxicillin in human plasma, fed conditions, read-out: tmax, mean value ± s (converted)), 2.28 h; in data set [1] (amoxicillin in human plasma, fed conditions, read-out: tmax, median (converted)) it was 1.5 h. In addition, in data set [1] (test tablet after food intake compared with fasting), the “Maximum plasma concentrations Cmax of amoxicillin” value is recorded as “slightly lower”. Also, the “Initial maximum plasma concentrations Cmax of amoxicillin” value in data set [2] (condition a) vs condition b)) is “higher initial maximum plasma concentrations”. In data set [2] (condition a) vs condition b)), the “Plasma level of amoxicillin (duration)” value is “slightly prolonged”.
Turning to `O=C(O)[C@H]1/C(=C/CO)O[C@@H]2CC(=O)N21` [clavulanic acid], the “Cmax and AUC of clavulanic acid” value in data set [1] (fed state compared with fasting conditions) is “significantly reduced”. In addition, the AUC(0-inf) in data set [1] (clavulanic acid in human plasma, at the beginning of a meal, read-out: AUC0→∞, mean value ± s (converted)) is 3280 ng·h/mL; in data set [1] (clavulanic acid in human plasma, at the beginning of a meal, read-out: AUC0→∞, median (converted)), 2880 ng·h/mL; in data set [1] (clavulanic acid in human plasma, fasting conditions, 9 volunteers, read-out: AUC0→∞, mean value ± s (converted)), 3300 ng·h/mL; in data set [1] (clavulanic acid in human plasma, fasting conditions, read-out: AUC0→∞, median (converted)), 3020 ng·h/mL; in data set [1] (clavulanic acid in human plasma, fed conditions (30 minutes after high fat breakfast), read-out: AUC0→∞, mean value ± s (converted)) it was 2200 ng·h/mL; in data set [1] (clavulanic acid in human plasma, fed conditions, read-out: AUC0→∞, median (converted)), 2080 ng·h/mL. The peak concentration (Cmax) stood at 1390 ± 400 ng/mL in data set [1] (clavulanic acid in human plasma, at the beginning of a meal, read-out: Cmax, mean value ± s); 1240 ng/mL in data set [1] (clavulanic acid in human plasma, at the beginning of a meal, read-out: Cmax, median); 1400 ± 400 ng/mL in data set [1] (clavulanic acid in human plasma, fasting conditions, 9 volunteers, read-out: Cmax, mean value ± s); 1350 ng/mL in data set [1] (clavulanic acid in human plasma, fasting conditions, read-out: Cmax, median); 970 ± 600 ng/mL in data set [1] (clavulanic acid in human plasma, fed conditions, read-out: Cmax, mean value ± s); 830 ng/mL in data set [1] (clavulanic acid in human plasma, fed conditions, read-out: Cmax, median). In addition, the time to peak (Tmax) in data set [1] (clavulanic acid in human plasma, at the beginning of a meal, read-out: tmax, mean value ± s (converted)) is 1.38 h; in data set [1] (clavulanic acid in human plasma, at the beginning of a meal, read-out: tmax, median (converted)), 1.5 h; in data set [1] (clavulanic acid in human plasma, fasting conditions, 9 volunteers, read-out: tmax, mean value ± s (converted)), approximately 1.5 h; in data set [1] (clavulanic acid in human plasma, fasting conditions, read-out: tmax, median (converted)) it was 1.5 h; in data set [1] (clavulanic acid in human plasma, fed conditions, read-out: tmax, mean value ± s (converted)), 2.07 h; in data set [1] (clavulanic acid in human plasma, fed conditions, read-out: tmax, median (converted)) it was 2 h. Further, in data set [1] (test tablet taken after a meal (breakfast B) compared with fasting), the “Plasma concentrations of clavulanic acid (FIG. 1)” value is “significantly reduced”. Also, the “Plasma concentrations of clavulanic acid” value in data set [2] (condition a) tablet B fasting, tablet A 30 minutes after beginning of food intake, vs b) both tablets 30 minutes after beginning of food intake) is listed as “significantly higher”. Moreover, the “Cmax and AUC0→∞ of clavulanic acid” value in data set [2] (condition a) vs condition b)) is listed as “significantly higher”. For the same compound, the “Bioavailability of clavulanic acid” value in data set [3] is reported as “slightly decreased”.
Regarding `COc1ccc2[nH]c([S+]([O-])Cc3ncc(C)c(OC)c3C)nc2c1` (stereo not shown) [omeprazole], the “Bioavailability, effect of food ingestion” value in data set [4] was “reduces bioavailability”.

Source of the values: US20100040598A1, “KIT OF PARTS COMPRISING AN ACID LABILE AND AN ACID RESISTANT PHARMACEUTICALLY ACTIVE INGREDIENT” (priority 2006, published 2010).
